By melting point is commonly meant the temperature of the solid-liquid transition. As to `OC(CN1CCCCC1)c1cc(C(F)(F)F)nc2c(C(F)(F)F)cccc12` (stereo unspecified), the melting point was found to be 130 °C.
Then `CCCn1c(=O)c2[nH]c(-c3ccc(C(=O)N(CC)CC)o3)nc2n(CCC)c1=O`, with 247 to 250 °C.
`Cc1nc(C#N)ccc1OC1SCC(O)C(O)C1O` (stereo unspecified) showed a melting point of 193 to 195 °C.
Molecule `CC(C)(C)C(=O)C=Cc1cccnc1` registered a melting point of 68 to 70 °C.
`COc1c(C)c(N2CCN(c3ccc(C)cc3)CC2)c(C)c2c1OC(C)(C)C2` gave a melting point of 150 to 152 °C.
`O=[N+]([O-])c1cnc(Sc2cnccn2)s1` came in with a melting point of 129 to 130 °C.
In turn, `Cc1ccc(C)c2c1C(=O)N(CCl)S2(=O)=O` gave a melting point of 107 to 108 °C.
With `COc1ccc(C(C#N)=Cc2ccc(OC)c(OC3CCCC3)c2)cc1`, the melting point was 102 to 105 °C.
As for `CCCCc1nc2ccccn2c(=O)c1-c1ccc(N2CCN(C(=O)OC(C)(C)C)CC2)nc1`, the melting point fell in the range of 126 to 128 °C.
`COC(=O)c1[nH]c(C)c(Cc2ccccc2)c1N` gave a melting point of 143 to 144 °C.
For `CC(C)(C)OC(=O)N1CC(CCl)c2c1ccc1ccc(C#N)cc21` (stereo unspecified), the melting point was 138 to 140 °C.
For `NCCN1CCC(Nc2nc3ccccc3n2Cc2ccc(CO)o2)CC1`, the melting point worked out at 165 °C.
The molecule `COc1ccc(-c2cc(C)cn2-c2ccc(S(N)(=O)=O)cc2)cc1C` displayed a melting point of 149 to 151 °C.
Then `COc1cc(N)c2nccc(C)c2c1OCCCCCc1ccco1`, with 41 to 42 °C.
With `CN(C)C(=O)Sc1ccccc1C(=O)c1ccccc1C#N`, the melting point was 130 °C.
In turn, `Cc1nc(N)c2nc(C)n(Cc3cc(-c4ccc(F)cc4)no3)c2c1C` displayed a melting point of 278 to 279 °C.
As to `CC(=O)N1CCN(c2cc3nc(C(C)(C)C)sc3cc2[N+](=O)[O-])CC1`, the melting point was in the range of 166 to 168 °C.
For the molecule `Cc1oc(C=Cc2cccc(Cl)c2)nc1CC(=O)O`, the melting point lay in the range of 214 to 215 °C.
`Cc1ccc(S(=O)(=O)n2ccc3c(CO)cccc32)cc1` gave a melting point of 125 to 126 °C.
`CNC(=O)CNC(=O)CN1CCCC1=O` came in with a melting point of 139 to 140 °C.
Turning to `O=C1c2ccccc2C(O)N1CCCO[N+](=O)[O-]` (stereo unspecified), the melting point was 72 to 74 °C.
As for `CC(C)(C)OC(=O)[C@H](COC(=O)N(N)c1ccc(CC(=O)O)cc1)C(=O)OC(c1ccccc1)c1ccccc1`, the melting point was 165 to 166 °C.
For the molecule `CN1Cc2c(c3cc(CCN4CCN(c5nsc6ccccc56)CC4)ccc3[nH]c2=O)C1`, the melting point fell in the range of 205 to 207 °C.
The molecule `CCOC(COc1ccc(Cl)c2cccnc12)OCC` returned a melting point of 51 to 53 °C.
`C=CCOc1cc2c(cc1C)OC1(CC(C)(C)c3cc(O)c(C)cc3O1)CC2(C)C` (stereo unspecified): the melting point lay within 143 to 144 °C.
With `CCCc1ccc(NC2CCN(c3ccc(OC[C@@]4(C)Cn5cc([N+](=O)[O-])nc5O4)cc3)CC2)cc1`, the melting point fell in the range of 222 to 223 °C.
Then `C[C@@H](c1ccccc1)N1C[C@H]2CCOC(=O)[C@H]2C1`, with 86 to 87 °C.
For `CCOC(=O)COc1cc(C(=O)Oc2ccc([N+](=O)[O-])cc2)c(O)c2ccccc12`, the melting point lay within 165 to 167 °C.
The result for `COc1cccc(C2=C(C#N)C(c3cccc4nsnc34)c3c[nH]nc3N2)c1` (stereo unspecified) reads 220 °C; that for `Cc1cccc(N2CCOC2=O)c1CNc1cccn2c(C=O)c(C)nc12`, 196 to 197 °C.
The molecule `COc1ccc(CCNS(=O)(=O)c2ccc([N+](=O)[O-])cc2)cc1` showed a melting point of 92 to 93 °C.
On to `CS(=O)(=O)c1ccc(-c2nc(C(F)(F)F)sc2-c2ccc(F)cc2)cc1`, for which the melting point lay within 150 to 151 °C.
In the case of `O=c1ccsn1Cc1ccc2c(c1)CCO2`, the melting point was 100 to 102 °C.
`COc1cc(C=O)ccc1OCCBr`: the melting point fell in the range of 61 to 64 °C.
In turn, `CCCCCCC(=O)N[C@H](CO)C(=O)OCc1ccccc1` displayed a melting point of 62 to 66 °C.
Then `CCOC(=O)N1CCn2c(nc(-c3ccncn3)cc2=O)C(NC(=O)c2ccc(-c3cnn(C)c3)cc2)C1` (stereo unspecified), with 265 to 267 °C; and `COc1cc(C=C(C)[N+](=O)[O-])ccc1OCC(=O)O`, with 116 to 117 °C; and `CNC(=O)C(C)n1cc(C)c(-c2ccccc2)n1` (stereo unspecified), with 111 to 112 °C.
The result for `CC1(C)CCC(C)(C)c2cc(NC(=O)c3ccc(C=O)cc3)ccc21` reads 186 °C; that for `COc1cc(OC)c(-c2nc3cccnc3[nH]2)cc1C=CC(=O)c1ccc(C(=O)O)cc1`, 222 to 224 °C; that for `Cc1ccc(C2=C(c3ccc(C)cc3)C(c3ccc(C)cc3)=C(c3ccc(C)cc3)C2=O)cc1`, 244 to 245 °C.
In the case of `C/C(NC1CCCCC1)=C(\C#N)C(N)=S`, the melting point lay in the range of 142 to 144 °C.
Consider `Fc1cccc(CSc2nnc(-c3ncnc4[nH]ccc34)o2)c1`, for which the melting point was in the range of 182 to 183 °C.
Then `CNC(=O)Nc1ccc2c(c1)C(C)(N)c1c-2[nH]c(=O)c2nccn12` (stereo unspecified), with 200 °C; and `CS(=O)(=O)c1ccc(-c2[nH]c3ccc(Cl)cc3c2-c2ccc(S(C)(=O)=O)cc2)cc1`, with 173 to 175 °C; and `Cc1cccc(CC(=O)O)c1OCCCc1cn(-c2ccc(Cl)cn2)nc1C(C)(C)C`, with 112 to 113 °C.
Then `CN1C(=O)C(c2ccc(Cl)cc2)S(=O)C1c1cccnc1` (stereo unspecified), with 149 to 153 °C; and `CCCc1nc(C(C)C)c(C(=O)OCc2ccc(-c3ccccc3C(=O)C(=O)O)cc2)[nH]1`, with 177 to 178 °C; and `BrCCCOc1ccc(Oc2ccccc2)cc1`, with 54 to 55 °C.
`Oc1ncccc1C1(O)CCN(CC23CC(c4ccccc42)c2ccccc23)CC1` had a melting point of 195 to 199 °C.
The molecule `N#Cc1c(C(=O)O)cnn1-c1ccc(Cl)cc1` showed a melting point of 192 to 195 °C.
The result for `CC(C)(C)OC(=O)N1C[C@H](C#N)C[C@H]1C(=O)OCc1ccccc1` reads 97 to 99 °C.
The result for `COc1ccc(CC(CSC(C)=O)C(=O)Nc2cccc(C(=O)O)c2)cc1` (stereo unspecified) reads 124 to 126 °C; that for `CCOC(=O)C1=Cc2cc(C)cc(Br)c2NC1C(F)(F)F` (stereo unspecified), 122 to 124 °C.
The result for `Cc1c(F)cc(C(=O)NC2CC2)cc1-n1cc(Br)nc(NC2(c3ccccc3OCCN(C)C(=O)OCc3ccccc3)CC2)c1=O` reads 116 to 120 °C; that for `CCOC(=O)c1cn(CCc2cccc(C(F)(F)F)c2)c2cc(C3CC3)nn2c1=O`, 140 to 145 °C.
`Cn1c(=O)cc(-c2nc(-c3ccccc3)cs2)c2cc(C(=O)c3ccc(Cl)cc3)ccc21`: the melting point came out at 216 °C.
In the case of `Cc1ccccc1[C@@H](CCC(=O)O)Oc1cc(OCc2cccnc2)ccc1[N+](=O)[O-]`, the melting point lay within 117 to 119 °C.
For `CC(=O)C(C(=O)NS(=O)(=O)c1ccc(C)cc1)C(=O)c1ccccc1` (stereo unspecified), the melting point lay in the range of 114 to 116 °C.
In turn, `Cc1cc(C)cc(Oc2c(C(C)C)c(=O)[nH]c(=O)n2CCC2C=CCC2)c1` (stereo unspecified) showed a melting point of 148 to 149 °C.
The result for `CC(=O)NCC(C)(C)c1ccc2nc(-c3ccc(C)cc3)[nH]c2c1` reads 230 to 232 °C; that for `CN1C(=O)C(NC(=O)Nc2cccc([N+](=O)[O-])c2)N=C(c2ccccc2)c2ccccc21` (stereo unspecified), 288 to 289 °C.
With `CC(C)(C)NC(=O)NC1(C#N)CCC1`, the melting point fell in the range of 212 to 214 °C.
Regarding `CCOCCn1cc2c(C3C(=O)Nc4ccc(Cl)cc43)nc(NCCc3cccnc3)nc2n1` (stereo unspecified), the melting point is 224 to 226 °C.
Consider `COC(=O)C=NOCC(=O)C=CN(C)C`, for which the melting point is 63 to 64 °C.
`Cc1nc[nH]c1CSCCN=C(NC#N)NCCCCCCCCN` displayed a melting point of 122 to 124 °C.
The result for `O=C(O)c1cccc2c1CCc1ccc(O)cc1S2` reads 219 to 221 °C; that for `COc1c(C(C)(C)C)cc(P(c2cc(C(C)(C)C)c(OC)c(C(C)(C)C)c2)c2ccccc2P2c3ccccc3CC2C(C)C)cc1C(C)(C)C` (single isomer, unassigned; (+)), 69 to 70 °C.
With `Cc1cc(C(=O)NC/C=C\COc2ncccc2CN2CCCCC2)n[nH]1`, the melting point was 93 to 95 °C.
With `Cn1nc(-c2ccc(Cl)cc2)c2cc3ccccc3cc21`, the melting point lay within 157 to 159 °C.
On to `COc1ccccc1CNc1ccc2cc(Nc3nc(C(F)(F)F)co3)ccc2n1`, for which the melting point was found to be 144 °C.
The molecule `CNC(=O)N1N=C(c2ccc([N+](=O)[O-])c(C)c2)c2cc3c(cc2C=C1C)OCO3` showed a melting point of 246 to 248 °C.
Then `COc1ccc(-c2nc(C(O)C(F)(F)F)[nH]c2-c2ccc(OC)cc2)cc1` (stereo unspecified), with 242 to 245 °C; and `NCC(=O)N(N)c1ccc2ccccc2c1`, with 147 to 148 °C.
`CCOC(=O)CCc1cc(C(=O)CCC(=O)O)ccc1OC` had a melting point of 128 to 129 °C.
The result for `CCCCc1oc2ccccc2c1C(=O)NCc1ccc2c(-c3ccc(Cl)cc3)c(OCC#N)ccc2c1` reads 154 to 158 °C; that for `O=C(O)C1CCCCC1C(=O)CCSSCCC(=O)C1CCCCC1C(=O)O` (stereo unspecified), 167 to 170 °C; that for `Cc1cc(Nc2ccnc(Nc3ccc(S(=O)(=O)N4CCC(O)(CN(C)C)CC4)cc3)n2)ccc1F`, 233 °C.
As to `Cc1nc(-c2ccc(Cl)cc2Cl)sc1C(=O)NCCCCN1CCC(c2ccc3c(c2OCCO)CCCC3)CC1`, the melting point lay within 122 to 124 °C.
Turning to `N=c1cc(NC(=S)NCc2ccccc2)nc2n1CCCS2`, the melting point lay in the range of 189 to 190 °C.
Consider `COCCCNc1cccc(Oc2ccc(-c3cn(C4CCOC4)c4ncnc(N)c34)cc2)c1C#N` (stereo unspecified), for which the melting point was in the range of 183 to 184 °C.
`N#Cc1c[nH]cc1-c1cccc(Cl)c1F` displayed a melting point of 178 °C.
The result for `COc1cc2c(c3c1OC(C)(C)C3)C(c1cccc(NS(=O)(=O)N(C)C)c1)=NC(C)(C)C2` reads 134 to 136 °C; that for `CCOC(=O)c1nc(-c2ccccc2)[nH]c1N=NN(C)C`, 171 °C.
`CC(=O)Nc1ccc(C(=O)O)cc1O`: the melting point came out at 249 °C.
`CCn1cc(-c2c(-c3ccc(F)cc3)nn3ccncc23)ccc1=O`: the melting point was in the range of 165 to 166 °C.

Source of the values: a melting point compilation (Tetko et al.; mined from patent text by program, amines drawn as free bases though some values may be those of a salt).
